Experimental data taken from patent publication US10961215B2, “N-aryl and N-heteroaryl piperidine derivatives as liver X receptor beta agonists, compositions, and their use” (Merck Sharp & Dohme Corp., priority 2016, dated 2021).

What was measured:
[1] = molecular target: T1, GST tagged LXRbeta LBD (ligand binding domain) (Homo sapiens, UniProt P55055); experiment: LanthaScreen TR-FRET Liver X Receptor Coactivator Assay, LXR beta-LBD (co-activator recruitment; IP and % Emax relative to T0901317); assay type: biochemical; conditions: for EC50: Inflection Point of co-activator recruitment, LXR beta-LBD, TR-FRET; for Emax: read-out: LXR beta actiivty at max dose (%)
T1 construct: purchased Invitrogen pv4658.pps
T1 sequence (P55055 222-460 limits assumed): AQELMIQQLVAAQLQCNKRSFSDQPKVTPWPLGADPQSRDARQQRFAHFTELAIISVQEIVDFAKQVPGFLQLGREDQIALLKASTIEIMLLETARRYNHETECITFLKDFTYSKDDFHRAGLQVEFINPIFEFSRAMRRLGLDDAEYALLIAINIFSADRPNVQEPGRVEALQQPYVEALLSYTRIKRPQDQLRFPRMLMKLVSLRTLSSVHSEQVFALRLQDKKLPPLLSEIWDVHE
In short: (§1)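 Coactivator recruitment is scored against T0901317 as reference dual agonist, giving inflection-point potency and Emax. Compounds met the GST-LBD protein first, then a mix of terbium anti-GST antibody and fluorescein coactivator peptide. TR-FRET was measured after incubation at room temperature.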

[2] = molecular target: T2, GST tagged LXRalpha LBD (ligand binding domain) (Homo sapiens, UniProt Q13133); experiment: LanthaScreen TR-FRET Liver X Receptor Coactivator Assay, LXR alpha-LBD (co-activator recruitment; IP and % Emax relative to T0901317); assay type: biochemical; conditions: for EC50 / LXR alpha IP (nM): Inflection Point of co-activator recruitment, LXR alpha-LBD, TR-FRET; for Emax: read-out: LXR alpha actiivty at max dose (%)
T2 construct: purchased Invitrogen pv4655
T2 sequence (Q13133 209-447 limits assumed): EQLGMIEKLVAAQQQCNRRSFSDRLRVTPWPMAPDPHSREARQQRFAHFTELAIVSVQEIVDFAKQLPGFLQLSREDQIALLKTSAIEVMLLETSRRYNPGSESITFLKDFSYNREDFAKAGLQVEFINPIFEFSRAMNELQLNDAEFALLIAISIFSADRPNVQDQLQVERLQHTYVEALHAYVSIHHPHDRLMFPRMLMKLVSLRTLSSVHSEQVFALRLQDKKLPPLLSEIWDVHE
In short: as §1

[3] = efficacy at max dose in relation to reference T0901317, LXR beta-LBD
[4] = efficacy at max dose in relation to reference T0901317, LXR alpha-LBD

Structure (SMILES) | EC50 [1] [nM] | Emax [1, 3] [%] | EC50 [2] [nM] | Emax [2, 4] [%] | LXR alpha IP (nM) [2] | LXR beta actiivty at max dose (%) [1, 3] [%] | LXR alpha actiivty at max dose (%) [2, 4] [%]
CN(C)C(=O)c1ccc(N2CCC(CCCN(C)C(=O)[C@](O)(c3cccc(OC(F)F)c3)C(F)(F)F)CC2)nc1Cl [Example 1-51, (R)-2-chloro-6-(4-(3-(2-(3-(difluoromethoxy)phenyl)-3,3,3-trifluoro-2-hydroxy-N-methyl-propanamido)propyl)piperidin-1-yl)-N,N-dimethylnicotinamide] | 546 | 55 | 5530 | 23 | – | – | –
CN(C)C(=O)c1ccc(N2CCC(CCCNC(=O)[C@@](O)(c3cccc(O)c3)C(F)(F)F)CC2)nc1Cl [Example 5-21, (S)-2-chloro-N,N-dimethyl-6-(4-(3-(3,3,3-trifluoro-2-hydroxy-2-(3-hydroxyphenyl)propanamido)propyl)piperidin-1-yl)nicotinamide] | 314 | 91 | 8720 | 36 | – | – | –
COc1cccc([C@@](O)(C(=O)N(C)CC[C@@H]2CC23CCN(c2ccc(C(=O)N(C)C)c(Cl)c2)CC3)C(F)(F)F)c1 [Example 7-22, 2-chloro-N,N-dimethyl-4-((S)-1-(2-((R)-3,3,3-trifluoro-2-hydroxy-2-(3-methoxyphenyl)-N-methylpropanamido)ethyl)-6-azaspiro[2.5]octan-6-yl)benzamide] | 572 | 43 | – | 3 | No IP | – | –
CN(C)C(=O)c1ccc(N2CCC(CCCN(C)C(=O)[C@](O)(c3cccc(C4CC4)c3)C(F)(F)F)CC2)cc1Cl [Example 4-3, (R)-2-chloro-4-(4-(3-(2-(3-cyclopropylphenyl)-3,3,3-trifluoro-2-hydroxy-N-methylpropanamido)propyl)piperidin-1-yl)-N,N-dimethylbenzamide] | 67 | 53 | – | 0 | No IP | – | –
CC(C)N(C)C(=O)c1ccc(N2CCC(CCCN(C)C(=O)[C@](O)(c3ccccc3)C(F)(F)F)CC2)cc1Cl [Example 4-10, (R)-2-chloro-N-isopropyl-N-methyl-4-(4-(3-(3,3,3-trifluoro-2-hydroxy-N-methyl-2-phenylpropanamido)propyl)piperidin-1-yl)benzamide] | 162 | 67 | – | 10 | No IP | – | –
COc1cccc([C@@](O)(C(=O)N(C)CC[C@H]2CC23CCN(c2ccc(C(=O)N(C)C)c(Cl)n2)CC3)C(F)(F)F)c1 [Example 7-15, 2-chloro-N,N-dimethyl-6-((R)-1-(2-((R)-3,3,3-trifluoro-2-hydroxy-2-(3-methoxyphenyl)-N-methylpropanamido)ethyl)-6-azaspiro[2.5]octan-6-yl)nicotinamide] | 12 | 58 | 680 | 37 | – | – | –
CC(C)NC(=O)c1ccc(N2CCC3(CC2)C[C@H]3CCN(C)C(=O)[C@](O)(c2ccccc2)C(F)(F)F)cc1Cl [Example 7-28, 2-chloro-N-isopropyl-4-((S)-1-(2-((R)-3,3,3-trifluoro-2-hydroxy-N-methyl-2-phenylpropanamido)ethyl)-6-azaspiro[2.5]octan-6-yl)benzamide] | 1620 | 31 | – | 6 | No IP | – | –
CN(C)C(=O)c1ccc(N2CCC(CCCN(C)C(=O)[C@]3(c4ccccc4)CC(F)(F)CO3)CC2)nc1Cl [Example 1-66, (R)-2-chloro-6-(4-(3-(4,4-difluoro-N-methyl-2-phenyltetrahydrofuran-2-carboxamido)propyl)piperidin-1-yl)-N,N-dimethylnicotinamide] | 138 | 82 | – | 7 | No IP | – | –
CN(C)C(=O)c1ccc(N2CCC(CCCNC(=O)[C@](O)(c3cccc(OC4CC4)c3)C(F)(F)F)CC2)nc1Cl [Example 5-11, (R)-2-chloro-6-(4-(3-(2-(3-cyclopropoxyphenyl)-3,3,3-trifluoro-2-hydroxypropanamido)propyl)piperidin-1-yl)-N,N-dimethylnicotinamide] | 349 | 46 | – | -8 | No IP | – | –
CN(C)C(=O)c1ccc(N2CCC(CCCN(C)C(=O)C3(c4ccccc4)CCOCC3)CC2)nc1Cl [Example 1-17, 2-chloro-N,N-dimethyl-6-(4-(3-(N-methyl-4-phenyl-tetrahydro-2H-pyran-4-carboxamido)propyl)piperidin-1-yl)nicotinamide] | 290 | 55 | – | 7 | No IP | – | –
CN(C)C(=O)c1ccc(N2CCC(CCCN(C)C(=O)[C@](O)(c3cccc(OC4CC4)c3)C(F)(F)F)CC2)nc1Cl [Example 1-41, (R)-2-chloro-6-(4-(3-(2-(3-cyclopropoxyphenyl)-3,3,3-trifluoro-2-hydroxy-N-methylpropanamido)propyl)piperidin-1-yl)-N,N-dimethylnicotinamide] | 105 | 44 | – | 0 | No IP | – | –
CN(C)C(=O)c1ccc(N2CCC3(CC2)CC3CCN(C)C(=O)[C@](O)(c2ccccc2)C(F)(F)F)cc1Cl (stereo partly drawn) [Example 7-2, 2-chloro-N,N-dimethyl-4-(1-(2-((R)-3,3,3-trifluoro-2-hydroxy-N-methyl-2-phenylpropanamido)ethyl)-6-azaspiro[2.5]octan-6-yl)benzamide] | 14 | 73 | 534 | 44 | – | – | –
CN(C)C(=O)c1ccc(N2CCC(CCCN(C)C(=O)[C@]3(c4ccccc4)CCCO3)CC2)nc1Cl [Example 1-10, (R)-2-chloro-N,N-dimethyl-6-(4-(3-(N-methyl-2-phenyl-tetrahydrofuran-2-carboxamido)propyl)piperidin-1-yl)nicotinamide] | 72 | 71 | – | 9 | No IP | – | –
CN(C)C(=O)c1ccc(N2CCC(C)(CCCN(C)C(=O)[C@](O)(c3cccc(OC(F)(F)F)c3)C(F)(F)F)CC2)nc1Cl [Example 9-5, (R)-2-chloro-N,N-dimethyl-6-(4-methyl-4-(3-(3,3,3-trifluoro-2-hydroxy-N-methyl-2-(3-(trifluoromethoxy)phenyl)pro-panamido)propyl)piperidin-1-yl)nicotinamide] | 43 | 38 | – | 0 | No IP | – | –
COc1cccc([C@@](O)(C(=O)N(C)C[C@H](C)CC2CCN(c3ccc(C(=O)N(C)C)c(Cl)n3)CC2)C(F)(F)F)c1 (single isomer, unassigned) [Example 3-1] | 25 | 70 | – | 16 | No IP | – | –
COc1cccc([C@@](O)(C(=O)NCCCC2CCN(c3ccc(C(=O)N(C)C)c(Cl)n3)CC2)C(F)(F)F)c1 [Example 5-23, (R)-2-chloro-N,N-dimethyl-6-(4-(3-(3,3,3-trifluoro-2-hydroxy-2-(3-methoxyphenyl)propanamido)propyl)piperidin-1-yl) nicotinamide] | 275 | – | – | – | No IP | 73 | 16
CN(C)C(=O)c1ccc(N2CCC(CCCN(C)C(=O)[C@@](O)(c3cccc(OC4CC4)c3)C(F)(F)F)CC2)nc1Cl [Example 1-35, (S)-2-chloro-6-(4-(3-(2-(3-cyclopropoxyphenyl)-3,3,3-trifluoro-2-hydroxy-N-methylpropanamido)propyl)piperidin-1-yl)-N,N-dimethylnicotinamide] | 437 | 46 | – | 14 | No IP | – | –
COc1cccc([C@@](O)(C(=O)NCCCC2CCN(c3ccc(C(=O)N(C)C)c(Cl)n3)CC2)C(F)(F)F)c1.O=C(O)C(F)(F)F [Example 5-20, (R)-2-chloro-N,N-dimethyl-6-(4-(3-(3,3,3-trifluoro-2-hydroxy-2-(3-methoxyphenyl)propanamido)propyl)piperidin-1-yl)nicotinamide] | 230 | 69 | – | 17 | No IP | – | –
COc1cccc([C@@](O)(C(=O)N(C)CC[C@H]2CC23CCN(c2ccc(C(=O)N(C)C(C)C)c(Cl)c2)CC3)C(F)(F)F)c1 [Example 7-14, 2-chloro-N-isopropyl-N-methyl-4-((R)-1-(2-((R)-3,3,3-trifluoro-2-hydroxy-2-(3-methoxyphenyl)-N-methylpropanamido)ethyl)-6-azaspiro[2.5]octan-6-yl)benzamide] | 18 | 55 | – | 6 | No IP | – | –
